# Target: PD-1/PD-L1 interaction (PD-1-Ig / PD-L1-His) (Homo sapiens (Human), UniProt Q9NZQ7)
# Assay: PD-1/PD-L1 Homogenous Time-Resolved Fluorescence (HTRF) binding assay
# Conditions: PD-1/PD-L1 HTRF binding assay; numeric value; read-out: Range or IC50
# Method in brief: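 Human PD-L1-His (10 nM final) was pre-incubated with inhibitor for 15 min, then PD-1-Ig (20 nM final) was added for a further 15 min in dPBS with 0.1% BSA and 0.05% Tween-20. Binding was detected by HTRF using Eu-cryptate anti-Ig (1 nM) and APC anti-His (20 nM).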
# Sequence of PD-1/PD-L1 interaction (PD-1-Ig / PD-L1-His) (Q9NZQ7 other isoform, or with tags, fused parts or gaps): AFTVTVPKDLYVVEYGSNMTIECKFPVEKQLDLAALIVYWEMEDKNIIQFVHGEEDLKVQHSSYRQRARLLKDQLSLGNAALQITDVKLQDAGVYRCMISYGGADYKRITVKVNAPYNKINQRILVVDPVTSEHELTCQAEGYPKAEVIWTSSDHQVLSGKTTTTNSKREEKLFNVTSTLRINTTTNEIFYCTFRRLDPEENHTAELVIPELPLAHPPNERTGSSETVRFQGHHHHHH
row,IC50,SMILES
1,10 nM,"Cc1c(COc2cc(OCc3cncc(C(=O)O)c3)c(CN[C@@H](CCCN)C(=O)O)cc2Cl)cccc1-c1ccc2c(c1)OCCO2 [Example 2002, (S)-5-((2-(((4-amino-1-carboxybutyl)amino)methyl)-4-chloro-5-((3-(2,3-dihydrobenzo[b][1,4]dioxin-6-yl)-2-methylbenzyl)oxy)phenoxy)methyl)nicotinic acid]"

# Same assay, conditions: PD-1/PD-L1 HTRF binding assay; value given as range class; read-out: Range or IC50
row,SMILES,IC50
1,"N#Cc1cccc(COc2cc(OCc3cccc(-c4ccc5c(c4)OCCO5)c3C#N)c(Br)cc2CN2CCCC[C@H]2C(=O)O)c1 [Example 1313, (S)-1-(5-bromo-4-((2-cyano-3-(2,3-dihydrobenzo[b][1,4]dioxin-6-yl)benzyl)oxy)-2-((3-cyanobenzyl)oxy)benzyl)piperidine-2-carboxylic acid]",0.6 to 10 nM
2,"N#Cc1cccc(COc2cc(OCc3cccc(-c4ccc5c(c4)OCCO5)c3C#N)c(Br)cc2CNC[C@@H](O)CC(=O)O)c1 [Example 1314, (S)-4-((5-bromo-4-((2-cyano-3-(2,3-dihydrobenzo[b][1,4]dioxin-6-yl)benzyl)oxy)-2-((3-cyanobenzyl)oxy)benzyl)amino)-3-hydroxybutanoic acid]",0.6 to 10 nM
3,"CC(=O)NCCNCc1cc(Br)c(OCc2cccc(-c3ccc4c(c3)OCCO4)c2C#N)cc1OCc1cccc(C#N)c1 [Example 1315, N-(2-((5-bromo-4-((2-cyano-3-(2,3-dihydrobenzo[b][1,4]dioxin-6-yl)benzyl)oxy)-2-((3-cyanobenzyl)oxy)benzyl)amino)ethyl)acetamide]",0.6 to 10 nM
4,"Cc1c(COc2cc(OCc3cncc(C#N)c3)c(CNC[C@@H](O)CC(=O)O)cc2Br)cccc1-c1ccc2c(c1)OCCO2 [Example 1316, (S)-4-(5-bromo-2-((5-cyanopyridin-3-yl)methoxy)-4-(3-(2,3-dihydrobenzo[b][1,4]dioxin-6-yl)-2-methylbenzyloxy)benzylamino)-3-hydroxybutanoic acid]",0.6 to 10 nM
5,"CC(=O)NCCNCc1cc(Br)c(OCc2cccc(-c3ccc4c(c3)OCCO4)c2C)cc1OCc1cncc(C#N)c1 [Example 1317, N-(2-(5-bromo-2-((5-cyanopyridin-3-yl)methoxy)-4-(3-(2,3-dihydrobenzo[b][1,4]dioxin-6-yl)-2-methylbenzyloxy)benzylamino)ethyl)acetamide]",0.6 to 10 nM
6,"Cc1c(COc2cc(OCc3cncc(C#N)c3)c(CN3CCCC[C@H]3C(=O)O)cc2Br)cccc1-c1ccc2c(c1)OCCO2 [Example 1319, (S)-1-(5-bromo-2-((5-cyanopyridin-3-yl)methoxy)-4-(3-(2,3-dihydrobenzo[b][1,4]dioxin-6-yl)-2-methylbenzyloxy)benzyl)piperidine-2-carboxylic acid]",0.6 to 10 nM
7,"Cc1c(COc2cc(OCc3cncc(C#N)c3)c(CNCCO)cc2Br)cccc1-c1ccc2c(c1)OCCO2 [Example 1322, 5-((4-bromo-5-(3-(2,3-dihydrobenzo[b][1,4]dioxin-6-yl)-2-methylbenzyloxy)-2-((2-hydroxyethylamino)methyl)phenoxy)methyl)nicotinonitrile]",0.6 to 10 nM
8,"Cc1c(COc2cc(OCc3cncc(C#N)c3)c(CN3CCCC[C@@H]3C(=O)O)cc2Br)cccc1-c1ccc2c(c1)OCCO2 [Example 1323, (R)-1-(5-bromo-2-((5-cyanopyridin-3-yl)methoxy)-4-(3-(2,3-dihydrobenzo[b][1,4]dioxin-6-yl)-2-methylbenzyloxy)benzyl)piperidine-2-carboxylic acid]",0.6 to 10 nM
9,"Cc1c(C#N)cncc1COc1cc(OCc2cccc(-c3ccccc3)c2C)ccc1CN[C@H](CO)C(=O)O [Example 1324, (R)-2-(2-((5-cyano-4-methylpyridin-3-yl)methoxy)-4-((2-methylbiphenyl-3-yl)methoxy)benzylamino)-3-hydroxypropanoic acid]",10 to 100 nM
10,"Cc1c(COc2ccc(CN[C@H](CO)C(=O)O)c(OCc3cncc(C#N)c3)c2)cccc1-c1ccccc1 [Example 1327, (R)-2-((2-((5-cyanopyridin-3-yl)methoxy)-4-((2-methyl-[1,1′-biphenyl]-3-yl)methoxy)benzyl)amino)-3-hydroxypropanoic acid]",0.6 to 10 nM
11,"Cc1c(COc2ccc(CNC[C@@H](O)CC(=O)O)c(OCc3cncc(C#N)c3)c2)cccc1-c1ccccc1 [Example 1328, (S)-4-((2-((5-cyanopyridin-3-yl)methoxy)-4-((2-methyl-[1,1′-biphenyl]-3-yl)methoxy)benzyl)amino)-3-hydroxybutanoic acid]",0.6 to 10 nM
12,"Cc1c(COc2ccc(CN3CCCC[C@H]3C(=O)O)c(OCc3cncc(C#N)c3)c2)cccc1-c1ccccc1 [Example 1329, (S)-1-(2-((5-cyanopyridin-3-yl)methoxy)-4-((2-methyl-[1,1′-biphenyl]-3-yl)methoxy)benzyl)piperidine-2-carboxylic acid]",0.6 to 10 nM
13,"Cc1c(COc2ccc(CNC[C@@H](O)CC(=O)O)c(OCc3ccc(F)c(C#N)c3)c2)cccc1-c1ccccc1 [Example 1331, (S)-4-((2-((3-cyano-4-fluorobenzyl)oxy)-4-((2-methyl-[1,1′-biphenyl]-3-yl)methoxy)benzyl)amino)-3-hydroxybutanoic acid]",0.6 to 10 nM
14,"Cc1c(COc2ccc(CN3CCCC[C@H]3C(=O)O)c(OCc3ccc(F)c(C#N)c3)c2)cccc1-c1ccccc1 [Example 1334, (S)-1-(2-((3-cyano-4-fluorobenzyl)oxy)-4-((2-methyl-[1,1′-biphenyl]-3-yl)methoxy)benzyl)piperidine-2-carboxylic acid]",0.6 to 10 nM

# Other lines, results leading:
row,IC50,SMILES
1,0.6 to 10 nM,"Cc1cc(CN[C@](C)(CO)C(=O)O)c(OCc2cncc(C#N)c2)cc1OCc1cccc(-c2ccc3c(c2)OCCO3)c1C#N [Example 1311, (R)-2-(4-(2-cyano-3-(2,3-dihydrobenzo[b][1,4]dioxin-6-yl)benzyloxy)-2-((5-cyanopyridin-3-yl)methoxy)-5-methylbenzylamino)-3-hydroxy-2-methylpropanoic acid]"
2,0.6 to 10 nM,"N#Cc1cccc(COc2cc(OCc3cccc(-c4ccc5c(c4)OCCO5)c3C#N)c(Br)cc2CN[C@@H](CO)C(=O)O)c1 [Example 1312, (S)-2-((5-bromo-4-((2-cyano-3-(2,3-dihydrobenzo[b][1,4]dioxin-6-yl)benzyl)oxy)-2-((3-cyanobenzyl)oxy)benzyl)amino)-3-hydroxypropanoic acid]"
3,0.6 to 10 nM,"Cc1c(COc2cc(OCc3cncc(C#N)c3)c(CN[C@@H](CO)C(=O)O)cc2Br)cccc1-c1ccc2c(c1)OCCO2 [Example 1318, (S)-2-(5-bromo-2-((5-cyanopyridin-3-yl)methoxy)-4-(3-(2,3-dihydrobenzo[b][1,4]dioxin-6-yl)-2-methylbenzyloxy)benzylamino)-3-hydroxypropanoic acid]"
4,0.6 to 10 nM,"Cc1c(COc2cc(OCc3cncc(C#N)c3)c(CN[C@](C)(CO)C(=O)O)cc2Br)cccc1-c1ccc2c(c1)OCCO2 [Example 1320, (R)-2-(5-bromo-2-((5-cyanopyridin-3-yl)methoxy)-4-(3-(2,3-dihydrobenzo[b][1,4]dioxin-6-yl)-2-methylbenzyloxy)benzylamino)-3-hydroxy-2-methylpropanoic acid]"
5,0.6 to 10 nM,"Cc1c(COc2cc(OCc3cncc(C#N)c3)c(CN[C@@](C)(CO)C(=O)O)cc2Br)cccc1-c1ccc2c(c1)OCCO2 [Example 1321, (S)-2-(5-bromo-2-((5-cyanopyridin-3-yl)methoxy)-4-(3-(2,3-dihydrobenzo[b][1,4]dioxin-6-yl)-2-methylbenzyloxy)benzylamino)-3-hydroxy-2-methylpropanoic acid]"
6,10 to 100 nM,"Cc1c(COc2ccc(CN[C@H](CO)C(=O)O)c(OCc3cccc(C(N)=O)c3)c2)cccc1-c1ccc2c(c1)OCCO2 [Example 1325, (R)-2-((2-((3-carbamoylbenzyl)oxy)-4-((3-(2,3-dihydrobenzo[b][1,4]dioxin-6-yl)-2-methylbenzyl)oxy)benzyl)amino)-3-hydroxypropanoic acid]"
7,0.6 to 10 nM,"Cc1c(COc2ccc(CN[C@](C)(CO)C(=O)O)c(OCc3cccc(C(N)=O)c3)c2)cccc1-c1ccc2c(c1)OCCO2 [Example 1326, (R)-2-((2-((3-carbamoylbenzyl)oxy)-4-((3-(2,3-dihydrobenzo[b][1,4]dioxin-6-yl)-2-methylbenzyl)oxy)benzyl)amino)-3-hydroxy-2-methylpropanoic acid]"
8,0.6 to 10 nM,"Cc1c(COc2ccc(CN[C@H](CO)C(=O)O)c(OCc3ccc(F)c(C#N)c3)c2)cccc1-c1ccccc1 [Example 1332, (R)-2-((2-((3-cyano-4-fluorobenzyl)oxy)-4-((2-methyl-[1,1′-biphenyl]-3-yl)methoxy)benzyl)amino)-3-hydroxypropanoic acid]"
9,0.6 to 10 nM,"Cc1c(COc2ccc(CN[C@](C)(CO)C(=O)O)c(OCc3ccc(F)c(C#N)c3)c2)cccc1-c1ccccc1 [Example 1333, (R)-2-((2-((3-cyano-4-fluorobenzyl)oxy)-4-((2-methyl-[1,1′-biphenyl]-3-yl)methoxy)benzyl)amino)-3-hydroxy-2-methylpropanoic acid]"
10,100 to 20000 nM,"CCOC(=O)c1cncc(COc2cc(OCc3cccc(-c4ccc5c(c4)OCCO5)c3C)c(Cl)cc2CN[C@@](C)(CO)C(=O)O)c1 [Example 2000, (S)-2-((5-chloro-4-((3-(2,3-dihydrobenzo[b][1,4]dioxin-6-yl)-2-methylbenzyl)oxy)-2-((5-(ethoxycarbonyl)pyridin-3-yl)methoxy)benzyl)amino)-3-hydroxy-2-methylpropanoic acid]"
11,0.6 to 10 nM,"Cc1c(COc2cc(OCc3cncc(C(=O)O)c3)c(CN[C@@](C)(CO)C(=O)O)cc2Cl)cccc1-c1ccc2c(c1)OCCO2 [Example 2001, (S)-5-((2-(((2-carboxy-1-hydroxypropan-2-yl)amino)methyl)-4-chloro-5-((3-(2,3-dihydrobenzo[b][1,4]dioxin-6-yl)-2-methylbenzyl)oxy)phenoxy)methyl)nicotinic acid]"

# Source: patent US9850225B2, “Compounds useful as immunomodulators” (BRISTOL-MYERS SQUIBB COMPANY, priority 2014, dated 2017)
